We go through one compound from patent publication US20220227759A1, “AMORPHOUS PI3K INHIBITOR AND PHARMACEUTICAL COMPOSITION COMPRISING SAME” (BORYUNG PHARMACEUTICAL CO., LTD, priority 2019, published 2022).

A short description of this data set: Pharmacokinetic (PK) test. It counts as in vivo. To be noted: beagle dog, 100 mg, PO, capsule. As for the experimental part: A pharmacokinetic (PK) experiment was performed on the amorphous compound of Example 1.
The powder of the amorphous compound of Example 1 was filled into a capsule in an amount of 100 mg, and the capsule was orally administered to a beagle dog at 100 mg once a day, and then the biokinetics of the drug was confirmed.
Specifically, 100 mg of the amorphous compound was orally administered to the beagle dog, and blood was collected at a predetermined time, so as to measure a concentration of (S)-4-((1-(4,8-dichloro-1-oxo-2-phenyl-1,2-dihydroisoquinoline-3-yl)ethyl)amino)pyrido[2,3-d]pyrimidine-5(8H)-one. With respect to pharmacokinetic parameters, the BA Calc 2007 program was used to calculate an area under the plasma concentration-time curve from dosing time to final plasma concentration quantification time t (AUCt), an area under the plasma concentration-time curve from dosing time to infinite time (AUCi), peak plasma concentration (Cmax), time for peak plasma concentration (Tmax), and terminal elimination half-life (t1/2). As a result, a significance between substances was confirmed by Student t-test (SPSS) at a 95% confidence interval, and the results thereof are shown in table 4 below.

Structures are written as SMILES.

`C[C@H](Nc1ncnc2[nH]ccc(=O)c12)c1c(Cl)c2cccc(Cl)c2c(=O)n1-c1ccccc1` [Example 1, (S)-4-((1-(4,8-dichloro-1-oxo-2-phenyl-1,2-dihydroisoquinoline-3-yl)ethyl)amino)pyrido[2,3-d]pyrimidin-5(8H)-one]: the blood concentration result is reported as “high blood concentration”.
